Tested on: LPS-stimulated Raw264.7 cells
Test: Western blotting of pro-inflammatory cytokines
Assay type: cell-based
Details: WB; co-culture with LPS-stimulated Raw264.7 cells for 2 days; vs LPS
Experimental: In some embodiments, to assess whether M1 macrophage-targeted FA-PDA nanocarriers enhance the efficiency of anti-inflammatory therapy with loaded Leon, FA-PDA@Leon was co-cultured with LPS-stimulated Raw264.7 cells for 2 days, after which western blotting (WB) analysis was performed. A first group (Group 1) in FIG. 4G to FIG. 4J represents the control group (NC), a second group (Group 2) represents the LPS treatment, a third group (Group 3) represents the LPS and Leon co-treatment, a fourth group (Group 4) represents the LPS and PDA co-treatment, the fifth group (Group 5) represents the LPS and PDA@Leon co-treatment, and a sixth group (Group 6) indicates the LPS and FA-PDA@Leon co-treatment.

For `COc1cc(C(=O)OCCCCNC(=N)N)cc(OC)c1O` [Leon, leonurine], the “protein expression of pro-inflammatory cytokines (iNOS, IL-13, IL-6, TNF-α)” value was “down-regulated”.

— patent publication US12324798B1, “Leonurine nanocomposite hydrogel and preparation methods and applications thereof” (WEST CHINA HOSPITAL OF SICHUAN UNIVERSITY, priority 2023, dated 2025)
